Experimental data: ChEMBL document CHEMBL1926636, “Isoxazoles incorporated N-substituted decahydroquinolines: a precursor to the next generation antimicrobial drug” (2012)
Converted amounts (≈) assume the structure as drawn.

Assays:
Candida albicans [1] = assay: Antifungal activity against Candida albicans PYCC 3436 by twofold serial dilution technique; format: functional
Escherichia coli [2] = assay: Antibacterial activity against Escherichia coli ATCC 35218 by twofold serial dilution technique; format: functional
[3] = test system: Lysinibacillus sphaericus; assay: Antibacterial activity against Bacillus sphaericus ATCC 7031 at 10 ug/mL after 24 hrs by disc diffusion method; format: functional; details: ATCC 7031, 24 h, read-out: IZ
Pseudomonas aeruginosa [4] = assay: Antibacterial activity against Pseudomonas aeruginosa ATCC 9027 by twofold serial dilution technique; format: functional
Aspergillus niger [5] = assay: Antifungal activity against Aspergillus niger ATCC 16404 at 10 ug/mL after 72 hrs by agar cup plate method; format: functional; details: ATCC 16404, 72 h, read-out: IZ
Bacillus subtilis [6] = assay: Antibacterial activity against Bacillus subtilis ATCC 6631 by twofold serial dilution technique; format: functional
Staphylococcus aureus [7] = assay: Antibacterial activity against Staphylococcus aureus ATCC 6538 by twofold serial dilution technique; format: functional
[8] = test system: Lysinibacillus sphaericus; assay: Antibacterial activity against Bacillus sphaericus ATCC 7031 by twofold serial dilution technique; format: functional
Pseudomonas aeruginosa [9] = assay: Antibacterial activity against Pseudomonas aeruginosa ATCC 9027 at 10 ug/mL after 24 hrs by disc diffusion method; format: functional; details: ATCC 9027, 24 h, read-out: IZ
Aspergillus fumigatus [10] = assay: Antifungal activity against Aspergillus fumigatus ATCC 28212 at 10 ug/mL after 72 hrs by agar cup plate method; format: functional; details: ATCC 28212, 72 h, read-out: IZ
Candida albicans [11] = assay: Antifungal activity against Candida albicans PYCC 3436 at 10 ug/mL after 72 hrs by agar cup plate method; format: functional; details: PYCC 3436, 72 h, read-out: IZ
Salmonella typhi [12] = assay: Antibacterial activity against Salmonella typhi ATCC 6539 at 10 ug/mL after 24 hrs by disc diffusion method; format: functional, Salmonella enterica subsp. enterica serovar Typhi; details: Salmonella enterica, ATCC 6539, 24 h; read-out: IZ
Staphylococcus aureus [13] = assay: Antibacterial activity against Staphylococcus aureus ATCC 6538 at 10 ug/mL after 24 hrs by disc diffusion method; format: functional; details: ATCC 6538, 24 h, read-out: IZ
Bacillus subtilis [14] = assay: Antibacterial activity against Bacillus subtilis ATCC 6631 at 10 ug/mL after 24 hrs by disc diffusion method; format: functional; details: ATCC 6631, 24 h, read-out: IZ
Escherichia coli [15] = assay: Antibacterial activity against Escherichia coli ATCC 35218 at 10 ug/mL after 24 hrs by disc diffusion method; format: functional; details: ATCC 35218, 24 h, read-out: IZ
Aspergillus fumigatus [16] = assay: Antifungal activity against Aspergillus fumigatus ATCC 28212 by twofold serial dilution technique; format: functional
Candida albicans [17] = assay: Antifungal activity against Candida albicans ATCC 90028 by twofold serial dilution technique; format: functional
Salmonella typhi [18] = assay: Antibacterial activity against Salmonella typhi ATCC 6539 by twofold serial dilution technique; format: functional, Salmonella enterica subsp. enterica serovar Typhi; details: Salmonella enterica
Candida albicans [19] = assay: Antifungal activity against Candida albicans ATCC 90028 at 10 ug/mL after 72 hrs by agar cup plate method; format: functional; details: ATCC 90028, 72 h, read-out: IZ
Aspergillus niger [20] = assay: Antifungal activity against Aspergillus niger ATCC 16404 by twofold serial dilution technique; format: functional

Row | Compound | MIC99 (Candida albicans [1]) | MIC99 (Escherichia coli [2]) | zone of inhibition at 10 µg/mL [3] | MIC99 (Pseudomonas aeruginosa [4]) | zone of inhibition at 10 µg/mL (Aspergillus niger [5]) | MIC99 (Bacillus subtilis [6]) | MIC99 (Staphylococcus aureus [7]) | MIC99 [8] | zone of inhibition at 10 µg/mL (Pseudomonas aeruginosa [9]) | zone of inhibition at 10 µg/mL (Aspergillus fumigatus [10]) | zone of inhibition at 10 µg/mL (Candida albicans [11]) | zone of inhibition at 10 µg/mL (Salmonella typhi [12]) | zone of inhibition at 10 µg/mL (Staphylococcus aureus [13]) | zone of inhibition at 10 µg/mL (Bacillus subtilis [14]) | zone of inhibition at 10 µg/mL (Escherichia coli [15]) | MIC99 (Aspergillus fumigatus [16]) | MIC99 (Candida albicans [17]) | MIC99 (Salmonella typhi [18]) | zone of inhibition at 10 µg/mL (Candida albicans [19]) | MIC99 (Aspergillus niger [20])
1 | c1ccc(CN2C(c3ccccc3)C3=C(NOC3c3ccccc3)C3CCCCC32)cc1 (stereo not given) | 50 µg/mL (≈ 118 µM) | 100 µg/mL (≈ 237 µM) | 11 mm | 100 µg/mL (≈ 237 µM) | 4 mm | 100 µg/mL (≈ 237 µM) | 100 µg/mL (≈ 237 µM) | 100 µg/mL (≈ 237 µM) | 3 mm | 2 mm | 10 mm | 3 mm | 10 mm | 4 mm | 4 mm | 100 µg/mL (≈ 237 µM) | > 100 µg/mL | > 100 µg/mL | 7 mm | > 100 µg/mL
2 | Clc1ccccc1C1ONC2=C1C(c1ccccc1)N(Cc1ccccc1)C1CCCCC21 (stereo not given) | 25 µg/mL (≈ 54.7 µM) | 25 µg/mL (≈ 54.7 µM) | 13 mm | 25 µg/mL (≈ 54.7 µM) | 14 mm | 50 µg/mL (≈ 109 µM) | 50 µg/mL (≈ 109 µM) | 50 µg/mL (≈ 109 µM) | 6 mm | 5 mm | 16 mm | 9 mm | 12 mm | 5 mm | 7 mm | 25 µg/mL (≈ 54.7 µM) | 25 µg/mL (≈ 54.7 µM) | > 100 µg/mL | 22 mm | 100 µg/mL (≈ 219 µM)
3 | O=[N+]([O-])c1cccc(C2ONC3=C2C(c2ccccc2)N(Cc2ccccc2)C2CCCCC32)c1 (stereo not given) | 25 µg/mL (≈ 53.5 µM) | 50 µg/mL (≈ 107 µM) | 9 mm | 25 µg/mL (≈ 53.5 µM) | 21 mm | 50 µg/mL (≈ 107 µM) | 100 µg/mL (≈ 214 µM) | 100 µg/mL (≈ 214 µM) | 5 mm | 5 mm | 16 mm | 8 mm | 8 mm | 6 mm | 5 mm | 12.5 µg/mL (≈ 26.7 µM) | 25 µg/mL (≈ 53.5 µM) | > 100 µg/mL | 24 mm | 100 µg/mL (≈ 214 µM)
4 | COc1ccc(C2ONC3=C2C(c2ccccc2)N(Cc2ccccc2)C2CCCCC32)cc1 (stereo not given) | 50 µg/mL (≈ 110 µM) | 25 µg/mL (≈ 55.2 µM) | 7 mm | 100 µg/mL (≈ 221 µM) | 7 mm | 100 µg/mL (≈ 221 µM) | 50 µg/mL (≈ 110 µM) | 100 µg/mL (≈ 221 µM) | 4 mm | 3 mm | 12 mm | 11 mm | 14 mm | 5 mm | 6 mm | 100 µg/mL (≈ 221 µM) | 50 µg/mL (≈ 110 µM) | 100 µg/mL (≈ 221 µM) | 14 mm | > 100 µg/mL
5 | Clc1ccc(C2ONC3=C2C(c2ccccc2)N(Cc2ccccc2)C2CCCCC32)cc1 (stereo not given) | 12.5 µg/mL (≈ 27.4 µM) | 50 µg/mL (≈ 109 µM) | 16 mm | 25 µg/mL (≈ 54.7 µM) | 16 mm | 50 µg/mL (≈ 109 µM) | 50 µg/mL (≈ 109 µM) | 25 µg/mL (≈ 54.7 µM) | 5 mm | 4 mm | 18 mm | 9 mm | 14 mm | 6 mm | 4 mm | 50 µg/mL (≈ 109 µM) | 25 µg/mL (≈ 54.7 µM) | > 100 µg/mL | 21 mm | 100 µg/mL (≈ 219 µM)
6 | c1ccc(CN2C(c3ccccc3)C3=C(NOC3c3ccco3)C3CCCCC32)cc1 (stereo not given) | 100 µg/mL (≈ 242 µM) | 100 µg/mL (≈ 242 µM) | 12 mm | 50 µg/mL (≈ 121 µM) | 4 mm | 50 µg/mL (≈ 121 µM) | 100 µg/mL (≈ 242 µM) | 50 µg/mL (≈ 121 µM) | 4 mm | 4 mm | 4 mm | 2 mm | 5 mm | 5 mm | 3 mm | 50 µg/mL (≈ 121 µM) | 100 µg/mL (≈ 242 µM) | > 100 µg/mL | 12 mm | > 100 µg/mL
7 | c1ccc(CN2C(c3ccccc3)C3=C(NOC3c3ccc4c(c3)OCO4)C3CCCCC32)cc1 (stereo not given) | 100 µg/mL (≈ 214 µM) | 50 µg/mL (≈ 107 µM) | 11 mm | 25 µg/mL (≈ 53.6 µM) | 11 mm | 100 µg/mL (≈ 214 µM) | 100 µg/mL (≈ 214 µM) | 50 µg/mL (≈ 107 µM) | 5 mm | 4 mm | 6 mm | 7 mm | 8 mm | 5 mm | 4 mm | 50 µg/mL (≈ 107 µM) | 50 µg/mL (≈ 107 µM) | > 100 µg/mL | 16 mm | 100 µg/mL (≈ 214 µM)
8 | c1ccc(CN2C(c3ccccc3)C3=C(NOC3c3c[nH]c4ccccc34)C3CCCCC32)cc1 (stereo not given) | 50 µg/mL (≈ 108 µM) | 25 µg/mL (≈ 54.2 µM) | 6 mm | 25 µg/mL (≈ 54.2 µM) | 9 mm | > 100 µg/mL | 50 µg/mL (≈ 108 µM) | 100 µg/mL (≈ 217 µM) | 5 mm | 5 mm | 11 mm | 7 mm | 11 mm | 3 mm | 7 mm | 25 µg/mL (≈ 54.2 µM) | 100 µg/mL (≈ 217 µM) | > 100 µg/mL | 13 mm | > 100 µg/mL
9 | COc1ccc(C2ONC3=C2C(c2ccccc2)N(Cc2ccccc2)C2CCCCC32)cc1OC (stereo not given) | 50 µg/mL (≈ 104 µM) | 50 µg/mL (≈ 104 µM) | 9 mm | 25 µg/mL (≈ 51.8 µM) | 14 mm | 50 µg/mL (≈ 104 µM) | 100 µg/mL (≈ 207 µM) | 100 µg/mL (≈ 207 µM) | 4 mm | 6 mm | 9 mm | 12 mm | 9 mm | 7 mm | 6 mm | 12.5 µg/mL (≈ 25.9 µM) | 50 µg/mL (≈ 104 µM) | 100 µg/mL (≈ 207 µM) | 15 mm | 100 µg/mL (≈ 207 µM)
10 | O=[N+]([O-])c1ccc(C2ONC3=C2C(c2ccccc2)N(Cc2ccccc2)C2CCCCC32)cc1 (stereo not given) | 50 µg/mL (≈ 107 µM) | 50 µg/mL (≈ 107 µM) | 14 mm | 12.5 µg/mL (≈ 26.7 µM) | 13 mm | 100 µg/mL (≈ 214 µM) | 50 µg/mL (≈ 107 µM) | 50 µg/mL (≈ 107 µM) | 6 mm | 6 mm | 12 mm | 10 mm | 11 mm | 4 mm | 5 mm | 12.5 µg/mL (≈ 26.7 µM) | 50 µg/mL (≈ 107 µM) | 100 µg/mL (≈ 214 µM) | 19 mm | 100 µg/mL (≈ 214 µM)
11 | c1ccc(CN2C(c3ccccc3)C3=C(NOC3c3ccccn3)C3CCCCC32)cc1 (stereo not given) | 12.5 µg/mL (≈ 29.5 µM) | 25 µg/mL (≈ 59 µM) | 16 mm | 12.5 µg/mL (≈ 29.5 µM) | 10 mm | 50 µg/mL (≈ 118 µM) | 50 µg/mL (≈ 118 µM) | 25 µg/mL (≈ 59 µM) | 7 mm | 7 mm | 18 mm | 11 mm | 12 mm | 6 mm | 7 mm | 12.5 µg/mL (≈ 29.5 µM) | 50 µg/mL (≈ 118 µM) | 50 µg/mL (≈ 118 µM) | 18 mm | 100 µg/mL (≈ 236 µM)
12 | O=C(O)c1cn(C2CC2)c2cc(N3CCNCC3)c(F)cc2c1=O [CIPROFLOXACIN] | – | 18 µg/mL (≈ 54.3 µM) | 24 mm | 12.5 µg/mL (≈ 37.7 µM) | – | 25 µg/mL (≈ 75.4 µM) | 25 µg/mL (≈ 75.4 µM) | 20 µg/mL (≈ 60.4 µM) | 8 mm | – | – | 39 mm | 17 mm | 9 mm | 9 mm | – | – | 50 µg/mL (≈ 151 µM) | – | –
13 | CC(=O)N1CCN(c2ccc(OCC3COC(Cn4ccnc4)(c4ccc(Cl)cc4Cl)O3)cc2)CC1 (stereo not given) [KETOCONAZOLE] | 7.8 µg/mL (≈ 14.7 µM) | – | – | – | 25 mm | – | – | – | – | 10 mm | 22 mm | – | – | – | – | 7 µg/mL (≈ 13.2 µM) | 25 µg/mL (≈ 47 µM) | – | 22 mm | 50 µg/mL (≈ 94.1 µM)
